{"source": "patent US20220226484A1", "about": "“THERAPEUTIC PEPTIDES” (COHBAR, INC., priority 2019, published 2022)", "key": {"[1]": {"assay": "Cell viability, PrestoBlue Assay", "assay_type": "cell-based, human", "details": "human; read-out: Cell viability, % of the background corrected DMSO control value", "experimental": "The effect of the peptides on cell viability can be assessed in cultured cells using suitable assay of viability such as the PrestoBlue® assay (Thermo Fisher Scientific, Waltham, Mass.). Peptides were initially prepared as 10 mM stock in DMSO and tested at a final concentration of 10 μM (0.1% DMSO). […] PrestoBlue Assay Reagent was purchased from Thermo Fisher Scientific. A172 human brain glioblastoma cell line was purchased from American Type Culture Collection (Manassas, Va.). A172 cells were grown in DMEM supplemented with 10% FBS with 100 IU/ml penicillin and 100 μg/ml streptomycin. Cultures were maintained at 37° C. in a humidified atmosphere of 5% CO2/95% air. A172 cells were seeded at 8,000 cells per well on 96-well plates. […] Cell viability was determined using a PrestoBlue Assay reagent […] according to the manufacturer's instructions. Absorption for each sample well on the plate was measured using a Cytation 3 plate reader at 560 nm and 590 nm (BioTek, Winooski, Vt.). Activity was calculated relative to 0.1% DMSO untreated control. Treatment with 0.1% DMSO alone was used as the cell viability activity control. The relative standard deviation of the DMSO control was <5%."}, "[2]": {"tested_on": "SH-SY5Y Neuroblastoma Cells", "assay": "ATP levels (CellTiter-Glo)", "assay_type": "cell-based, human", "details": "staurosporine 1 μM", "experimental": "The effect of the peptides on cellular metabolism can be assessed using an assay of ATP levels in cultured cells such as human neuroblastoma cells. Peptides were initially prepared as 10 mM stock in DMSO and used at a final concentration of 10 μM (0.1% DMSO). […] CellTiter-Glo® Assay kit was purchased from Promega. SH-SY5Y human bone marrow neuroblastoma cell line was purchased from American Type Culture Collection (Manassas, Va.) and licensed from Memorial Sloan-Kettering Cancer Center (New York, N.Y.). SH-SY5Y cells were grown in DMEM/F12 medium supplemented with 10% FBS with 100 IU/ml penicillin and 100 μg/ml streptomycin. Cultures were maintained at 37° C. in a humidified atmosphere of 5% CO2/95% air. SH-SY5Y cells were seeded at 30,000 cells per well on 96-well plates. […] ATP levels were determined using a CellTiter-Glo Assay kit (Promega) according to the manufacturer's instructions. Luminescence for each sample well on the plate was measured using a Cytation 3 plate reader (BioTek, Winooski, Vt.). Activity was calculated relative to 0.1% DMSO treated control. The relative standard deviation of the result for the 0.1% DMSO treated control was <5%."}}}
{"smiles": "CN[C@@H]1C[C@H]2O[C@@](C)([C@@H]1OC)n1c3ccccc3c3c4c(c5c6ccccc6n2c5c31)C(=O)NC4", "note": "[staurosporine, Staurosporine, reference compound]", "values": [{"measurement": "viability at 1 µM", "setting": "[1]", "result": "< 75", "unit": "%"}, {"measurement": "ATP levels, % of the 0.1% DMSO treated control value", "setting": "[2]", "result": "< 5", "unit": "%"}]}
